The results in this text go back to patent publication US9650395B2, “Antibacterial compounds and methods for use” (PTC Therapeutics, Inc., priority 2011, dated 2017).

The subject of test [1] is super sensitive Gram-negative Escherichia coli (E. coli) BAS849. The test can be described thus: Antibacterial activity, microbroth dilution MIC, E. coli BAS849. It is filed as cell-based. Conditions: Escherichia coli, read-out: MIC, BAS849. For orientation: Dilution methods test growth across graded concentrations, often in twofold steps.
For test [2], the system named is control Gram-negative E. coli 25922 strain. The test can be described thus: Antibacterial activity, microbroth dilution MIC, E. coli 25922. The conditions noted are these: Escherichia coli; E. coli 25922, microbroth dilution; read-out: MIC, 25922. It is filed as cell-based, Escherichia coli.
Test [3] has as its system Gram-positive Staphylococcus aureus (S. aureus) 29213. The test can be described thus: Antibacterial activity, microbroth dilution MIC, S. aureus 29213. It is filed as cell-based. Conditions: Staphylococcus aureus; S. aureus 29213, microbroth dilution; read-out: MIC, 29213.
Test [4] concerns quinolone resistant E. coli LZ3111. The test can be described thus: Antibacterial activity, MIC, quinolone resistant E. coli LZ3111. The conditions noted are these: Escherichia coli, read-out: MIC, LZ3111. It is filed as cell-based, Escherichia coli. The text has this:
(§1) The antibacterial activity from a microbroth dilution method may be presented as the minimum inhibitory concentration (MIC in […]). The MIC value is the lowest concentration of a drug which prevents macroscopically visible bacterial growth under test conditions.
Mutations in these regions are known to confer a high level resistance to the quinolone class of antibiotics.

The subject of test [5] is E. coli ELZ4000 (MDR clinical isolate). The test can be described thus: Antibacterial activity, MIC, MDR E. coli ELZ4000. It is filed as cell-based, Escherichia coli. The conditions noted are these: Escherichia coli; E. coli ELZ4000, MDR clinical isolate; read-out: MIC ELZ4000.
The test system of test [6] is E. coli ELZ4251 (MDR clinical isolate). The test can be described thus: Antibacterial activity, MIC, MDR E. coli ELZ4251. The conditions noted are these: Escherichia coli, E. coli ELZ4251, MDR clinical isolate; read-out: MIC ELZ4251. It is filed as cell-based, Escherichia coli.
Test [7] relates to Acinetobacter baumannii (A. baumannii) BAA747. The test can be described thus: Antibacterial activity, MIC, A. baumannii BAA747. It is filed as cell-based. Conditions: Acinetobacter baumannii; A. baumannii BAA747; read-out: MIC BAA747.
Test [8] deals with Klebsiella pneumoniae (K. pneumoniae) 35657. The test can be described thus: Antibacterial activity, MIC, K. pneumoniae 35657. It is filed as cell-based. Conditions: Klebsiella pneumoniae.
Test [9] has as its system Pseudomonas aeruginosa (P. aeruginosa) 27853. The test can be described thus: Antibacterial activity, MIC, P. aeruginosa 27853. It is filed as cell-based. Conditions: Pseudomonas aeruginosa, P. aeruginosa 27853; read-out: MIC 27853.
From the text: as §1
Antibacterial activity of test compounds against the Gram-negative bacterium Pseudomonas aeruginosa (P. aeruginosa) 27853 is shown in Table 5.

Test [10] concerns Haemophilus influenzae (H. influenzae) 49247. The test can be described thus: Antibacterial activity, MIC, H. influenzae 49247. It is filed as cell-based. The conditions noted are these: Haemophilus influenzae; H. influenzae 49247; read-out: MIC 49247. An outline of the steps:
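A microbroth dilution method gave the minimum inhibitory concentration for each compound against H. influenzae 49247, a Gram-negative bacterium. MIC means the smallest concentration of drug at which no macroscopically visible bacterial growth appears under the conditions of the test.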

The test system of test [11] is Moraxella catarrhalis (M. catarrhalis) 25238. The test can be described thus: Antibacterial activity, MIC, M. catarrhalis 25238. It is filed as cell-based. Conditions: Moraxella catarrhalis, M. catarrhalis 25238; read-out: MIC 25238.
Test [12] has as its system Neisseria meningitidis (N. meningitidis) 13090. The test can be described thus: Antibacterial activity, MIC, N. meningitidis 13090. It is filed as cell-based. Conditions: Neisseria meningitidis; N. meningitidis 13090; read-out: MIC 13090.
Setting [13] is: E. coli BAS849, microbroth dilution.

Converted amounts (≈) assume the structure as drawn. Structures can show the parent of a compound that is named as a salt. Where two headings read alike, the source gives them in different places. Some results are limits rather than exact numbers.

`CCc1cc(C(=O)O)c(=O)[nH]c1-c1ccc(N(C)C)c(F)c1` [Cpd 93, 6-[4-(dimethylamino)-3-fluorophenyl]-5-ethyl-2-oxo-1,2-dihydropyridine-3-carboxylic acid]: the MIC in test [1] (setting [13]) was less than 1 µg/mL; in test [2] it was 12.5 to 150 µg/mL (≈ 41.1 to 493 µM); in test [3], 12.5 to 150 µg/mL (≈ 41.1 to 493 µM); in [4], 12.5 to 150 µg/mL (≈ 41.1 to 493 µM); in test [5], 12.5 to 150 µg/mL (≈ 41.1 to 493 µM); in test [6], 12.5 to 150 µg/mL (≈ 41.1 to 493 µM). In addition, the MIC is 12.5 to 150 µg/mL (≈ 41.1 to 493 µM) in test [7]; 12.5 to 150 µg/mL (≈ 41.1 to 493 µM) in test [8]; 12.5 to 150 µg/mL (≈ 41.1 to 493 µM) in [9]; less than 1 µg/mL in [10]; less than 1 µg/mL in test [11]; less than 1 µg/mL in test [12].
`CCc1c(-c2ccc(N(C)C)c(F)c2)[nH]c(=O)c(C(=O)O)c1O` [Cpd 94, 6-[4-(dimethylamino)-3-fluorophenyl]-5-ethyl-4-hydroxy-2-oxo-1,2-dihydropyridine-3-carboxylic acid]: the MIC in [1] (setting [13]) was less than 1 µg/mL; in test [2] it was 12.5 to 150 µg/mL (≈ 39 to 468 µM); in [3], 12.5 to 150 µg/mL (≈ 39 to 468 µM); in test [4] it was 12.5 to 150 µg/mL (≈ 39 to 468 µM); in test [5] it was 12.5 to 150 µg/mL (≈ 39 to 468 µM); in test [6], 12.5 to 150 µg/mL (≈ 39 to 468 µM). Also, the MIC in test [7] is 12.5 to 150 µg/mL (≈ 39 to 468 µM); in test [8] it was 12.5 to 150 µg/mL (≈ 39 to 468 µM); in test [9], 12.5 to 150 µg/mL (≈ 39 to 468 µM); in test [10] it was less than 1 µg/mL; in test [11], less than 1 µg/mL; in [12], less than 1 µg/mL.
As to `CCc1cc(C(=O)O)c(=O)[nH]c1-c1ccc(N2CC3CCCCC3(C#N)C2)cc1` (centres unmarked) [Cpd 219, 6-[4-(3a-cyanooctahydro-2H-isoindol-2-yl)phenyl]-5-ethyl-2-oxo-1,2-dihydropyridine-3-carboxylic acid], the MIC in test [1] (setting [13]) was less than 1 µg/mL; in test [2], 12.5 to 150 µg/mL (≈ 31.9 to 383 µM); in [3], 12.5 to 150 µg/mL (≈ 31.9 to 383 µM); in test [4], 12.5 to 150 µg/mL (≈ 31.9 to 383 µM); in test [7] it was 12.5 to 150 µg/mL (≈ 31.9 to 383 µM); in test [8] it was 12.5 to 150 µg/mL (≈ 31.9 to 383 µM). Also, the MIC in test [9] fell in the range of 12.5 to 150 µg/mL (≈ 31.9 to 383 µM).
For `CCc1cc(C(=O)O)c(=O)[nH]c1-c1ccc(N2CC[C@@H](O)C2)cc1F` [Cpd 225, 5-ethyl-6-{2-fluoro-4-[(3R)-3-hydroxypyrrolidin-1-yl]phenyl}-2-oxo-1,2-dihydropyridine-3-carboxylic acid], the MIC in test [1] (setting [13]) was less than 1 µg/mL; in [2] it was 3.5 to 12.5 µg/mL (≈ 10.1 to 36.1 µM); in [3], 12.5 to 150 µg/mL (≈ 36.1 to 433 µM); in [4], 12.5 to 150 µg/mL (≈ 36.1 to 433 µM); in test [7] it was 12.5 to 150 µg/mL (≈ 36.1 to 433 µM); in test [8], 1 to 3.5 µg/mL (≈ 2.89 to 10.1 µM). Also, in [9], the MIC lay in the range of 12.5 to 150 µg/mL (≈ 36.1 to 433 µM).
For the compound `CCc1cc(C(=O)O)c(=O)[nH]c1-c1ccc(N2C[C@@H]3[C@@H](N)[C@@H]3C2)cc1F` [Cpd 231, 6-{4-[(1R,5S,6s)-6-amino-3-azabicyclo[3.1.0]hex-3-yl]-2-fluorophenyl}-5-ethyl-2-oxo-1,2-dihydropyridine-3-carboxylic acid trifluoroacetate], the MIC is less than 1 µg/mL in test [1]; 1 to 3.5 µg/mL in [2]; 12.5 to 150 µg/mL in [3]; 12.5 to 150 µg/mL in test [4]; 12.5 to 150 µg/mL in test [7]; 1 to 3.5 µg/mL in test [8]. Further, in test [9], the MIC was in the range of 12.5 to 150 µg/mL.
For the compound `CCc1c(-c2ccc(N3CCC(C4(N(C)C)CC4)C3)cc2)[nH]c(=O)c(C(=O)O)c1O` (centres unmarked) [Cpd 247, 6-(4-{3-[1-(dimethylamino)cyclopropyl]pyrrolidin-1-yl}phenyl)-5-ethyl-4-hydroxy-2-oxo-1,2-dihydropyridine-3-carboxylic acid], the MIC in [1] (setting [13]) was less than 1 µg/mL; in test [2], 3.5 to 12.5 µg/mL (≈ 8.51 to 30.4 µM); in [3], 3.5 to 12.5 µg/mL (≈ 8.51 to 30.4 µM); in test [4] it was 12.5 to 150 µg/mL (≈ 30.4 to 365 µM); in [7] it was 12.5 to 150 µg/mL (≈ 30.4 to 365 µM); in test [8], 3.5 to 12.5 µg/mL (≈ 8.51 to 30.4 µM). Moreover, the MIC in test [9] lay within 12.5 to 150 µg/mL (≈ 30.4 to 365 µM).
With `CCc1c(-c2ccc(N3C[C@H]4CCCC[C@@]4(CN(C)C)C3)cc2)[nH]c(=O)c(C(=O)O)c1O.Cl` [Cpd 266, 6-(4-{(3aR,7aS)-3a-[(dimethylamino)methyl]octahydro-2H-isoindol-2-yl}phenyl)-5-ethyl-4-hydroxy-2-oxo-1,2-dihydropyridine-3-carboxylic acid hydrochloride], the MIC in test [1] (setting [13]) lay in the range of 1 to 3.5 µg/mL; in test [2], 12.5 to 150 µg/mL; in [3], 3.5 to 12.5 µg/mL; in [4] it was 3.5 to 12.5 µg/mL; in [5], 12.5 to 150 µg/mL; in [6], 12.5 to 150 µg/mL. In addition, the MIC in test [7], in test [8] and in test [9] was 12.5 to 150 µg/mL throughout.
On to `CCc1c(-c2ccc(N3C[C@H]4CC[C@H](NC)[C@H]4C3)cc2)[nH]c(=O)c(C(=O)O)c1O.Cl` [Cpd 267, 5-ethyl-4-hydroxy-6-{4-[(3aR,4S,6aS)-4-(methylamino)hexahydrocyclopenta[c]pyrrol-2(1H)-yl]phenyl}-2-oxo-1,2-dihydropyridine-3-carboxylic acid hydrochloride], for which the MIC in test [1] (setting [13]) fell in the range of 1 to 3.5 µg/mL; in [2], 3.5 to 12.5 µg/mL; in test [3], 12.5 to 150 µg/mL; in test [4], 3.5 to 12.5 µg/mL; in test [7], 12.5 to 150 µg/mL; in [8], 3.5 to 12.5 µg/mL. Also, in [9], the MIC was in the range of 12.5 to 150 µg/mL.
For `CCc1c(-c2ccc(N3CC4CCCCC4(C#N)C3)cc2)[nH]c(=O)c(C(=O)O)c1O.O=C(O)C(F)(F)F` (centres unmarked) [Cpd 276, 6-[4-(3a-cyanooctahydro-2H-isoindol-2-yl)phenyl]-5-ethyl-4-hydroxy-2-oxo-1,2-dihydropyridine-3-carboxylic acid trifluoroacetate], the MIC was less than 1 µg/mL in [1]; 12.5 to 150 µg/mL in test [2]; 1 to 3.5 µg/mL in test [3]; 12.5 to 150 µg/mL in test [4]; 12.5 to 150 µg/mL in test [7]; 12.5 to 150 µg/mL in test [8]. The MIC in [9] is 12.5 to 150 µg/mL.
With `CCc1c(-c2ccc(N3CC[C@@H](O)C3)cc2F)[nH]c(=O)c(C(=O)O)c1O` [Cpd 292, 5-ethyl-6-{2-fluoro-4-[(3R)-3-hydroxypyrrolidin-1-yl]phenyl}-4-hydroxy-2-oxo-1,2-dihydropyridine-3-carboxylic acid], the MIC in test [1] (setting [13]) is less than 1 µg/mL; in [2] it was 1 to 3.5 µg/mL (≈ 2.76 to 9.66 µM); in test [3], 12.5 to 150 µg/mL (≈ 34.5 to 414 µM); in [4], 12.5 to 150 µg/mL (≈ 34.5 to 414 µM); in [7], 3.5 to 12.5 µg/mL (≈ 9.66 to 34.5 µM); in test [8] it was 1 to 3.5 µg/mL (≈ 2.76 to 9.66 µM). In addition, the MIC in [9] was 3.5 to 12.5 µg/mL (≈ 9.66 to 34.5 µM).
For `CCc1c(-c2ccc(N3CC[C@@H](F)C3)cc2F)[nH]c(=O)c(C(=O)O)c1O` [Cpd 293, 5-ethyl-6-{2-fluoro-4-[(3R)-3-fluoropyrrolidin-1-yl]phenyl}-4-hydroxy-2-oxo-1,2-dihydropyridine-3-carboxylic acid], the MIC is less than 1 µg/mL in test [1] (setting [13]); 3.5 to 12.5 µg/mL (≈ 9.61 to 34.3 µM) in test [2]; 3.5 to 12.5 µg/mL (≈ 9.61 to 34.3 µM) in test [3]; 12.5 to 150 µg/mL (≈ 34.3 to 412 µM) in test [4]; 12.5 to 150 µg/mL (≈ 34.3 to 412 µM) in test [7]; 12.5 to 150 µg/mL (≈ 34.3 to 412 µM) in test [8]. Besides, the MIC in test [9] was in the range of 12.5 to 150 µg/mL (≈ 34.3 to 412 µM).
